Columns and labels:
Type in all cases: in vivo
[1] = test system: Alopecurus myosuroides (ALOMY); assay: Post-emergence biological efficacy, glasshouse pot test; conditions: 312 h
Method: (§1) Seeds of Alopecurus myosuroides (ALOMY), Setaria faberi (SETFA), Echinochloa crus-galli (ECHCG), Solanum nigrum (SOLNI), Amaranthus retoflexus (AMARE) and Ipomea hederaceae (IPOHE) were sown in standard soil in pots. After cultivation for 8 days under controlled conditions in a glasshouse (at 24/16° C., day/night; 14 hours light; 65% humidity), the plants were sprayed with an aqueous spray solution derived from the formulation of the technical active ingredient in acetone/water (50:50) solution containing 0.5% Tween 20 (polyoxyethelyene sorbitan monolaurate, CAS RN 9005-64-5) to give a final dose of 1000 or 250 g/ha of test compound.
(§2) The test plants were then grown on under controlled conditions in a glasshouse (at 24/16° C., day/night; 14 hours light; 65% humidity) and watered twice daily. After 13 days the test was evaluated (100=total damage to plant; 0=no damage to plant).

[2] = test system: Amaranthus retoflexus (AMARE); assay: as above; conditions: Amaranthus retroflexus, 312 h
Method: as §1, §2

Solanum nigrum (SOLNI) [3] = assay: as above; conditions: 312 h
Method: as §1, §2

[4] = test system: Ipomea hederaceae (IPOHE); assay: as above; conditions: Ipomoea hederacea, 312 h
Method: as §1, §2

[5] = test system: Echinochloa crus-galli (ECHCG); assay: as above; conditions: 312 h
Method: as §1, §2

Setaria faberi (SETFA) [6] = assay: as above; conditions: 312 h
Method: as §1, §2

[7] = test system: Alopecurus myosuroides (ALOMY); assay: Pre-emergence biological efficacy, glasshouse pot test; conditions: 312 h
Method: as §1, with “one day” for “8 days”
(§3) The test plants were then grown under controlled conditions in the glasshouse (at 24/16° C., day/night; 14 hours light; 65% humidity) and watered twice daily. After 13 days the test was evaluated (100=total damage to plant; 0=no damage to plant).

[8] = test system: Amaranthus retoflexus (AMARE); assay: as above; conditions: Amaranthus retroflexus, 312 h
Method: as §1, with “one day” for “8 days”
as §3

Solanum nigrum (SOLNI) [9] = assay: as above; conditions: 312 h
Method: as §1, with “one day” for “8 days”
as §3

[10] = test system: Ipomea hederaceae (IPOHE); assay: as above; conditions: Ipomoea hederacea, 312 h
Method: as §1, with “one day” for “8 days”
as §3

[11] = test system: Echinochloa crus-galli (ECHCG); assay: as above; conditions: 312 h
Method: as §1, with “one day” for “8 days”
as §3

Setaria faberi (SETFA) [12] = assay: as above; conditions: 312 h
Method: as §1, with “one day” for “8 days”
as §3

[13] = post-emergence, 1,000 g/ha, evaluated after 13 days (100=total damage; 0=no damage), read-out: Percentage damage caused to weed species, ALOMY
[14] = post-emergence, 1,000 g/ha, evaluated after 13 days (100=total damage; 0=no damage), read-out: Percentage damage caused to weed species, AMARE
[15] = post-emergence, 1,000 g/ha, evaluated after 13 days (100=total damage; 0=no damage), read-out: Percentage damage caused to weed species, SOLNI
[16] = post-emergence, 1,000 g/ha, evaluated after 13 days (100=total damage; 0=no damage), read-out: Percentage damage caused to weed species, IPOHE
[17] = post-emergence, 1,000 g/ha, evaluated after 13 days (100=total damage; 0=no damage), read-out: Percentage damage caused to weed species, ECHCG
[18] = post-emergence, 1,000 g/ha, evaluated after 13 days (100=total damage; 0=no damage), read-out: Percentage damage caused to weed species, SETFA
[19] = pre-emergence, 1,000 g/ha, evaluated after 13 days (100=total damage; 0=no damage), read-out: Percentage damage ALOMY
[20] = pre-emergence, 1,000 g/ha, evaluated after 13 days (100=total damage; 0=no damage), read-out: Percentage damage AMARE
[21] = pre-emergence, 1,000 g/ha, evaluated after 13 days (100=total damage; 0=no damage), read-out: Percentage damage SOLNI
[22] = pre-emergence, 1,000 g/ha, evaluated after 13 days (100=total damage; 0=no damage), read-out: Percentage damage IPOHE
[23] = pre-emergence, 1,000 g/ha, evaluated after 13 days (100=total damage; 0=no damage), read-out: Percentage damage ECHCG
[24] = pre-emergence, 1,000 g/ha, evaluated after 13 days (100=total damage; 0=no damage), read-out: Percentage damage SETFA
[25] = Rate 1,000 g/ha, post-emergence spray, evaluated after 13 days (100=total damage to plant; 0=no damage to plant), read-out: Percentage damage caused to weed species, post-emergence, ALOMY
[26] = Rate 1,000 g/ha, post-emergence spray, evaluated after 13 days (100=total damage to plant; 0=no damage to plant), read-out: Percentage damage caused to weed species, post-emergence, AMARE
[27] = Rate 1,000 g/ha, post-emergence spray, evaluated after 13 days (100=total damage to plant; 0=no damage to plant), read-out: Percentage damage caused to weed species, post-emergence, SOLNI
[28] = Rate 1,000 g/ha, post-emergence spray, evaluated after 13 days (100=total damage to plant; 0=no damage to plant), read-out: Percentage damage caused to weed species, post-emergence, IPOHE
[29] = Rate 1,000 g/ha, post-emergence spray, evaluated after 13 days (100=total damage to plant; 0=no damage to plant), read-out: Percentage damage caused to weed species, post-emergence, ECHCG
[30] = Rate 1,000 g/ha, post-emergence spray, evaluated after 13 days (100=total damage to plant; 0=no damage to plant), read-out: Percentage damage caused to weed species, post-emergence, SETFA
[31] = pre-emergence, rate 1,000 g/ha, evaluated after 13 days (100=total damage to plant; 0=no damage), read-out: Percentage damage caused to weed species, ALOMY
[32] = pre-emergence, rate 1,000 g/ha, evaluated after 13 days (100=total damage to plant; 0=no damage), read-out: Percentage damage caused to weed species, IPOHE
[33] = pre-emergence, rate 1,000 g/ha, evaluated after 13 days (100=total damage to plant; 0=no damage), read-out: Percentage damage caused to weed species, ECHCG
[34] = pre-emergence, rate 1,000 g/ha, evaluated after 13 days (100=total damage to plant; 0=no damage), read-out: Percentage damage caused to weed species, SETFA

| SMILES | pest or weed control at 1000 g/ha [1, 13] | pest or weed control at 1000 g/ha [2, 14] | pest or weed control at 1000 g/ha (Solanum nigrum (SOLNI) [3]; [15]) | pest or weed control at 1000 g/ha [4, 16] | pest or weed control at 1000 g/ha [5, 17] | pest or weed control at 1000 g/ha (Setaria faberi (SETFA) [6]; [18]) | pest or weed control at 1000 g/ha [7, 19] | pest or weed control at 1000 g/ha [8, 20] | pest or weed control at 1000 g/ha (Solanum nigrum (SOLNI) [9]; [21]) | pest or weed control at 1000 g/ha [10, 22] | pest or weed control at 1000 g/ha [11, 23] | pest or weed control at 1000 g/ha (Setaria faberi (SETFA) [12]; [24]) | other results |
| --- | --- | --- | --- | --- | --- | --- | --- | --- | --- | --- | --- | --- | --- |
| COC(=O)c1nc(C2CC2)nc(NCC(F)c2ccc(F)cc2F)c1Cl (stereo not shown) [Compound 4-238, 5-Chloro-2-cyclopropyl-4-[2-(2,4-difluoro-phenyl)-2-fluoro-ethylamino]-6-methoxycarbonyl-pyrimidine] | 10% | 90% | 70% | 60% | 0% | 0% | 0% | 10% | 50% | 0% | 0% | 0% |  |
| COC(=O)c1nc(C2CC2)nc(NCc2cc(OC)c(OC)c(OC)c2)c1Cl [Compound 4-122, 5-Chloro-2-cyclopropyl-6-methoxycarbonyl-4-(3,4,5-trimethoxy-phenylmethyl-amino)pyrimidine] | 20% | 100% | 100% | 100% | 90% | 90% | 10% | 60% | 30% | 90% | 30% | 20% |  |
| O=C(O)c1nc(C2CC2)nc(NC2CCCCC2)c1Cl [Compound 1-35, 5-Chloro-4-cyclohexylamino-2-cyclopropyl-pyrimidine-6-carboxylic acid] | 10% | 50% | 30% | 50% | 10% | 0% | 10% | 50% | 20% | 0% | 10% | 0% |  |
| COC(=O)c1nc(C2CC2)nc(NC(C)c2ccc(Cl)cc2)c1Cl (stereo not shown) [Compound 4-176, 5-Chloro-4-[1-(4-chlorophenyl)ethyl-amino]-2-cyclo-propyl-6-methoxy-carbonylpyrimidine] | 20% | 100% | 100% | 100% | 50% | 70% | 0% | 50% | 0% | 60% | 20% | 0% |  |
| COC(=O)c1nc(C2CC2)nc(N(C)Cc2ccc(Br)cc2)c1Cl [Compound 5-69, 4-[N-(4-Bromo-phenylmethyl)-N-methyl-amino]-5-chloro-2-cyclo-propyl-6-methoxy-carbonylpyrimidine] |  |  |  |  |  |  |  |  |  |  |  |  | pest or weed control at 1000 g/ha [1, 25]: 30%; pest or weed control at 1000 g/ha [2, 26]: 100%; pest or weed control at 1000 g/ha (Solanum nigrum (SOLNI) [3]; [27]): 80%; pest or weed control at 1000 g/ha [4, 28]: 80%; pest or weed control at 1000 g/ha [5, 29]: 50%; pest or weed control at 1000 g/ha (Setaria faberi (SETFA) [6]; [30]): 70%; pest or weed control at 1000 g/ha [7, 31]: 10%; pest or weed control at 1000 g/ha ([8]; pre-emergence, rate 1,000 g/ha, evaluated after 13 days (100=total damage to plant; 0=no damage), read-out: Percentage damage caused to weed species, AMARE): 70%; pest or weed control at 1000 g/ha (Solanum nigrum (SOLNI) [9]; pre-emergence, rate 1,000 g/ha, evaluated after 13 days (100=total damage to plant; 0=no damage), read-out: Percentage damage caused to weed species, SOLNI): 20%; pest or weed control at 1000 g/ha [10, 32]: 50%; pest or weed control at 1000 g/ha [11, 33]: 10%; pest or weed control at 1000 g/ha (Setaria faberi (SETFA) [12]; [34]): 0% |
| COC(=O)c1nc(C2CC2)nc(NCC(F)c2cccc(Br)c2)c1Cl (stereo not shown) [Compound 4-235, 4-[2-(3-Bromophenyl)-2-fluoro-ethylamino]-5-chloro-2-cyclopropyl-6-methoxycarbonyl-pyrimidine] | 0% | 100% | 60% | 70% | 30% | 20% | 0% |  |  | 0% | 0% | 0% |  |
| COC(=O)c1nc(-c2ccc(OC)c(F)c2)nc(NCc2ccco2)c1Cl [Compound 253-48, 5-Chloro-2-(3-fluoro-4-methoxyphenyl)-4-(furan-2-yl-methyl-amino)-6-methoxy-carbonylpyrimidine] |  |  |  |  |  |  |  |  |  |  |  |  | pest or weed control at 1000 g/ha [1, 25]: 0%; pest or weed control at 1000 g/ha [2, 26]: 70%; pest or weed control at 1000 g/ha (Solanum nigrum (SOLNI) [3]; [27]): 40%; pest or weed control at 1000 g/ha [4, 28]: 20%; pest or weed control at 1000 g/ha [5, 29]: 0%; pest or weed control at 1000 g/ha (Setaria faberi (SETFA) [6]; [30]): 0%; pest or weed control at 1000 g/ha [7, 31]: 0%; pest or weed control at 1000 g/ha [10, 32]: 0%; pest or weed control at 1000 g/ha [11, 33]: 0%; pest or weed control at 1000 g/ha (Setaria faberi (SETFA) [12]; [34]): 0% |
| COC(=O)c1nc(C2CC2)nc(NCCC2=CCCCC2)c1Cl [Compound 4-215, 5-Chloro-4-[2-(cyclohex-1-enyl)ethylamino]-2-cyclopropyl-6-methoxycarbonyl-pyrimidine] | 20% |  | 100% | 80% | 30% | 50% | 10% | 100% | 90% | 90% | 20% | 20% |  |

From patent publication US20110086759A1, “CHEMICAL COMPOUNDS” (SYNGENTA CROP PROTECTION, INC., priority 2007, published 2011)
